Literature values as cited in patent US11260068B2, “Long-circulating liposome modified with c(RGD-ACP-K)” (BEIJING GREATSUN BIO-PHARM. TECH. CO., LTD, priority 2017, dated 2022).
Entries after “also recorded” stand apart in the source; their conditions may differ. Starred links: 1 amine or outer side, 2 acyl side, 3 side chain; linkers in the order of their positions; H or OH if unused. Non-standard residues stand in square brackets, D forms with d. Residues, ends and D or L forms follow the SMILES beside them. X1 = O=C(C1CCC(N[*:1])C1)[*:2]

Target: T1, integrin αvβ3 on the surface of U87MG cells (Homo sapiens, UniProt P05106+P06756)
T1 construct: U87MG glioblastoma cells expressing integrin αvβ3; endogenous in cells; host or cells: U87MG glioblastoma cells
T1 sequence (P06756 31-889 limits assumed): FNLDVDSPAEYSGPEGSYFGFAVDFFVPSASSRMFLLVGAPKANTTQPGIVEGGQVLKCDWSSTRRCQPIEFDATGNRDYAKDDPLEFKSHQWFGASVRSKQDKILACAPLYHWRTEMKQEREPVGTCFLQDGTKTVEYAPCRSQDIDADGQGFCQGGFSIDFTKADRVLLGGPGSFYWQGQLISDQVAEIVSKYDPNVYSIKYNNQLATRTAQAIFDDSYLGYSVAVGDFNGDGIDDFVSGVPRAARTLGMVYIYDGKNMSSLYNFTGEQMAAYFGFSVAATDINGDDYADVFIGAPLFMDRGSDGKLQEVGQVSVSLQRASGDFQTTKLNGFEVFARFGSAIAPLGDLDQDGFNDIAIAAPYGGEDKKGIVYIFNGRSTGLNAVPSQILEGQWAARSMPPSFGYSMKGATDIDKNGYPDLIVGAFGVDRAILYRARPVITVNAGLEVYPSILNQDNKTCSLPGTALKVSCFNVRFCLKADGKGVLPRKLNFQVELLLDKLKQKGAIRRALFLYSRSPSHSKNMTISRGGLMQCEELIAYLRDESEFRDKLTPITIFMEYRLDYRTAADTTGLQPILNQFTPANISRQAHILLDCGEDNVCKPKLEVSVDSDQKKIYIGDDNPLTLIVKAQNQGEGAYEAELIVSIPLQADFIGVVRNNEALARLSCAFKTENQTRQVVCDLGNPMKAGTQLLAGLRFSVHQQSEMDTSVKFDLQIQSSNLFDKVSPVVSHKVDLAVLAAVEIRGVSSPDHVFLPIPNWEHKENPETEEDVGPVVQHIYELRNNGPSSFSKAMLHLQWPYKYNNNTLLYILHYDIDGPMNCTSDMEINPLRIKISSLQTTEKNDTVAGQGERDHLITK
T1 sequence (P06756 891-1048 partner limits assumed): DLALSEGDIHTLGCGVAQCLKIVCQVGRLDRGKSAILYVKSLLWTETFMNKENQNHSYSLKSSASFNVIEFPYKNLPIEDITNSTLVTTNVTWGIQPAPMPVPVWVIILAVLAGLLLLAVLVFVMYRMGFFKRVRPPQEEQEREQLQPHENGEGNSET
T1 sequence (P05106 27-788): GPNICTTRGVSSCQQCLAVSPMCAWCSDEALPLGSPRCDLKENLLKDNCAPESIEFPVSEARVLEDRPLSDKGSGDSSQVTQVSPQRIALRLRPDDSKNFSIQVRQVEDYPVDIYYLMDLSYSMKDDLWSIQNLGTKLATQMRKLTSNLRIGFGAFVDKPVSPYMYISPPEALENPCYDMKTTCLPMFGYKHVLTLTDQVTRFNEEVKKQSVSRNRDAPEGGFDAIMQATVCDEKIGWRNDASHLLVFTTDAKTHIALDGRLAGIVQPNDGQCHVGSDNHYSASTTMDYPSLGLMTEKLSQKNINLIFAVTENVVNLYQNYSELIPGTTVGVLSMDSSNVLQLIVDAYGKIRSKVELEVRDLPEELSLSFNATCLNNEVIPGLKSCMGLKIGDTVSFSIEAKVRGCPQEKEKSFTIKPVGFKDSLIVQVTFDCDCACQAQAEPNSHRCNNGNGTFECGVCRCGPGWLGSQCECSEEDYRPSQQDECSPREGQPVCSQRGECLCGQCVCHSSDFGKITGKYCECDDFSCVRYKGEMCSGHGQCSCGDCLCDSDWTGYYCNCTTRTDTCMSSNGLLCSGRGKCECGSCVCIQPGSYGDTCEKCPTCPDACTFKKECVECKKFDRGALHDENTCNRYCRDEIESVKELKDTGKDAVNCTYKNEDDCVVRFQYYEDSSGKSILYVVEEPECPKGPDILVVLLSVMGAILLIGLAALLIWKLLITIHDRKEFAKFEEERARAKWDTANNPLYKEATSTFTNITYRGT
Details: reference c(RGDyK)

| Compound | binding to integrin αvβ3 on the surface of U87MG cells |
| --- | --- |
| N=C(N)NCCC[C@@H]1NC(=O)[C@H](CCCCN)NC(=O)C2CCC(C2)NC(=O)[C@H](CC(=O)O)NC(=O)CNC1=O (stereo partly drawn) [c(RGD-ACP-K), cyclo[RGD-(1S,3R)-3-aminocyclopentane-1-carboxylic acid]] (cyclo(RGD[X1]K)) | superior to that of the cyclic peptide c(RGDyK); also recorded: significantly higher than that of c(RGD-ACH-K) |
| cyclic [c(RGD-ACH-K), cyclic [RGD-(1S,3R)-3-aminocyclohexanecarboxylic acid]] | superior to that of the cyclic peptide c(RGDyK) |
